In patent EP3732162B1, “NITROALKENE NON STEROIDAL ANTI-INFLAMMATORY DRUGS (NA-NSAIDS) AND METHODS OF TREATING INFLAMMATION RELATED CONDITIONS” (Institut Pasteur De Montevideo, priority 2017, dated 2019):

Columns and labels:
[1] = Adduct formation with beta mercaptoethanol (BME), followed spectrophotometrically
Description: While not wishing to be bound by theory, during inflammation, reversible reactions with nucleophilic molecules such as NF-κB and the inflammasomes have shown to modify inflammatory response. One method to identify reactions with nucleophilic targets at physiological pH is by screening with beta mercaptoethanol ("BME"). […] Thus, the nitroalkene NSAIDs within the scope of the present invention react with nucleophilic molecules such as NF-κB and the inflammasomes to modify inflammatory response.

inflammasome = test: IL-1β secretion by ELISA in PMA-differentiated macrophages, compound given together with ATP (2nd signal); type: cell-based
Method: (§1) In order to compare benzoic acid (BA) and nitroalkene benzoic acid (BANA) over NF-κB and inflammasome function in macrophages, TUP-1 cells were differentiated into macrophages with PMA (200 nM, 48 h). Cells were then stimulated with LPS (250ng/mL) and with ATP (5mM, 45 minutes). Together with LPS (1st signal, FIG. 6) or ATP (2nd signal, FIG. 7), cells were treated with Benzoic acid (30 µM) or BANA (30 µM). Supernatants were collected and IL-1β secretion was measured by ELISA. […] Thus, BANA inhibits both the generation of the inflammasome, and inhibits the inflammasome itself.
(§2) Further exemplary studies were performed with Flufenamate (FluFE) and nitroalkene flufenamate (FluFENA). In order to study the effect of Flufenamate (FluFE) and FluFENA over NF-κB and inflammasome function in macrophages, THP-1 cells were differentiated into macrophages with PMA (200 nM, 48 h). Cells were stimulated with LPS (250ng/mL) and then with ATP (5mM, 45 minutes). Together with LPS (1st signal, FIG. 8) or ATP (2nd signal, FIG. 9), cells were treated with FluFE (5 µM) or FluFENA (5 µM). Supernatant were collected and IL-1β secretion was measured by ELISA. Cell viability was assessed by the MTT assay.
(§3) To study the effect of ibuprofen and IBUNA over NF-xB and inflammasome function in macrophages, TUP-1 cells were differentiated into macrophages with PMA (200 nM, 48 h). Cells were stimulated with LPS (250ng/mL) and then with ATP (5mM, 45 minutes). Together with LPS (1st signal, FIG. 10) or ATP (2nd signal, FIG. 11), cells were treated with Ibuprofen (20 µM) or IBUNA (20 µM). Supernatant were collected and IL-1β secretion was measured by ELISA.

NF-κB = test: IL-1β secretion by ELISA in PMA-differentiated macrophages, compound given together with LPS (1st signal); type: cell-based
Method: as §1, §2, §3

IL-1β = test: In vivo model of peritonitis (LPS-induced inflammatory response), IL-1β by ELISA; conditions: mice, 50 mg/kg IP 1 hour before LPS 10 mg/kg IP for 2 hours; as opposed to BA; FIG. 12
Method: Mice were treated with BANA, Benzoic Acid (50 mg/kg, IP) or the vehicle (100 mM Phosphate buffer 10% DMSO) for 1 hour. Then were injected with LPS (10 mg/kg, IP) or PBS for 2 hours. Mice were collected for peritoneal wash and blood samples were extracted. The peritoneal wash and plasma were stored to measure IL-1β by ELISA. The values are show as mean ± SD from three mice per condition and we have used the statistic test one-way ANOVA with Bonferroni.

## O=[N+]([O-])/C=C/c1ccc(O)cc1 [PheNA, (E)-4-(2-nitrovinyl)phenol]
[1]; 50 µM PheNA with 500 µM BME, 100 mM phosphate buffer pH 7.4, FIG. 5
  nitroalkene NSAID adduction with BME (absorbance): absorbance increase

## O=C(O)c1ccc(/C=C/[N+](=O)[O-])cc1 [BANA, (E)-4-(2-nitrovinyl)benzoic acid]
[1]; 10 µM BANA with 30 µM BME, 100 mM phosphate buffer pH 7.4, FIG. 4
  nitroalkene NSAID adduction with BME (absorbance): absorbance increase
inflammasome; TUP-1 cells differentiated with PMA, LPS 250ng/mL, then 30 µM together with ATP 5mM 45 minutes (2nd signal), vs Benzoic acid 30 µM, FIG. 7
  IL-1β secretion: inhibition of IL-1β secretion
NF-κB; TUP-1 cells differentiated with PMA, 30 µM together with LPS 250ng/mL (1st signal), then ATP 5mM 45 minutes, vs Benzoic acid 30 µM, FIG. 6
  IL-1β secretion: inhibition of IL-1β secretion
IL-1β
  level of pro-inflammatory cytokine IL-1β secretion in blood plasma: marked decrease
  level of pro-inflammatory cytokine IL-1β secretion in peritoneal wash: marked decrease

## CC(C)Cc1ccc(C(C)C(=O)O)cc1/C=C/[N+](=O)[O-] (stereo not shown) [IBUNA, (E)-2-(4-isobutyl-3-(2-nitrovinyl)phenyl)propanoic acid]
[1]; 50 µM IBUNA with 250 µM BME, 100 mM phosphate buffer pH 7.4, FIG. 2
  nitroalkene NSAID adduction with BME (absorbance): absorbance increase
inflammasome; TUP-1 cells differentiated with PMA, 20 µM together with ATP 5mM 45 minutes (2nd signal), compared with Ibuprofen 20 µM, FIG. 11
  IL-1β secretion: unexpected superiority
NF-κB; TUP-1 cells differentiated with PMA, 20 µM together with LPS 250ng/mL (1st signal), compared with Ibuprofen 20 µM, FIG. 10
  IL-1β secretion: unexpected superiority

## O=C(O)c1cc(/C=C/[N+](=O)[O-])ccc1Nc1cccc(C(F)(F)F)c1 [FluFENA, (E)-5-(2-nitrovinyl)-2-((3-(trifluoromethyl)phenyl)amino)benzoic acid]
[1]; 12.5 µM FluFENA with 125 µM BME, 100 mM phosphate buffer pH 7.4, FIG. 3
  nitroalkene NSAID adduction with BME (absorbance): absorbance increase
inflammasome; THP-1 cells differentiated with PMA, 5 µM together with ATP 5mM 45 minutes (2nd signal), compared with FluFE 5 µM, FIG. 9
  IL-1β secretion: unexpected advantage
NF-κB; THP-1 cells differentiated with PMA, 5 µM together with LPS 250ng/mL (1st signal), compared with FluFE 5 µM, FIG. 8
  IL-1β secretion: unexpected advantage

## CC(=O)Nc1ccc(O)c(/C=C/[N+](=O)[O-])c1 [PARANA, (E)-N-(4-hydroxy-3-(2-nitrovinyl)phenyl)acetamide]
[1]; 30 µM PARANA with 30 µM BME, 100mM phosphate buffer pH 7.4, FIG. 1
  nitroalkene NSAID adduction with BME (absorbance): absorbance increase
